In article PMC12501029, “Discovery of a CNS active GSK3 degrader using orthogonally reactive linker screening” (Nature Communications, 2025):

Legend:
[1] = target: T1, GSK3β-HiBiT (GSK3β-HiBiT KI HEK293 cells) (Homo sapiens, UniProt P49841); assay: Serum shift assay (10% FBS or 10% mouse serum); assay type: cell-based
T1 construct: we generated endogenously tagged GSK3β-HiBiT knock-in (KI) HEK293 cells; endogenous in cells; host or cells: GSK3β-HiBiT knock-in HEK293 cells (CRISPR/Cas9, single-cell clone)
Description: Test compounds were serially diluted into white bottom opaque tissue culture grade 384-well assay plates (Perkin Elmer) using Echo500 (Labcyte) and GSK3β-HiBiT KI HEK293 cells were seeded at a density of 5 × 10^3 cells per well either in 50 µL of DMEM supplemented with regular 10% FBS (Gibco) or instead 10% mouse serum (Balb/C) and plates were incubated for compound treatment in incubators at 37 °C. After 24 h of compound treatment, HiBiT lytic reagents (Promega) prepared according to manufacturers’ instructions were added into plates and luminescence signal was measured on a PheraStar plate reader (BMG) and data analysed using GraphPad Prism (v10.1.2) as previously described above.

HEK293 cells proteome = assay: Tandem-Mass-Tagging global (whole) proteomics in HEK293 cells; assay type: cell-based, human; settings: 10 nM
Description: For unbiased degradation profiling of compounds at the proteome level, HEK293 cells were seeded onto 10 cm plates at a density of 2–2.5 × 10^6 cells per plate. […] After treatment, cells were washed twice with PBS (Gibco), collected in Lobinding tubes (Merck) and lysed in RIPA buffer supplemented with Protease (Roche) and Phosphatase (Roche) inhibitors as previously described for 20 min on ice. Lysates were cleared via centrifugation and protein concentrations were determined by using Pierce BCA assay (Thermo Scientific). Similarly, brain and liver tissues from control and KH1 (24) treated mice were lysed as described above. One hundred and fifty micrograms of protein from tissues or cells for each condition was aliquoted into LoBind tubes (Eppendorf) and the STRAP (Protifi) protocol was followed according to manufacturers’ instructions with slight modifications. Briefly, liquid protein samples mixed with 2× Lysis buffer (10%SDS, 100 mM TEAB pH 8.5), protein was reduced with 5 mM DTT final concentration at 55 °C for 15 min, alkylated (final concentration 20 mM IAA or CAA) at room temperature for 10 min and then acidified (12% phosphoric acid). Protein was then trapped into S-trap columns and washed with S-trap binding/wash buffer (100 mM TEAB in 90% methanol) via centrifugation at 4000 × g for 30 s. Cleaned proteins then went through tryptic digestion (Trypsin (Thermo Scientific) in 50 mM TEAB) overnight at 37 °C or 2 h at 47 °C. Digested peptides were sequentially eluted in 80 µL of 50 mM TEAB (Sigma–Aldrich), 0.2% formic acid (Sigma–Aldrich) and 50% acetonitrile (Sigma–Aldrich). Elutions were pooled and dried down. Dried and cleaned peptides were reconstituted in 110 µL of 100 mM TEAB. TMT-16-plex reagent (Thermo Scientific) was brought into room temperature and reconstituted in 40 µL of anhydrous acetonitrile. TMT reagent solution was transferred to the peptides and incubated on thermoshaker (Eppendorf) at 400 rpm at room temperature for 1 h in the dark. Peptides were quenched by the addition of 8 µL of 5% Hydroxylamine for 1 h at room temperature. TMT-labelled peptides were pooled together and dried down in the speedVac for downstream processing. […]
The dried peptides were reconstituted in 0.1% formic acid and analyzed on an Orbitrap Ascend mass spectrometer coupled to a Thermo Fisher Scientific Vanquish Neo UHPLC. […] The precursor ions for MS2 were isolated using a Quadrupole mass filter at a 0.7 Da isolation width, fragmented using a normalised 30% HCD of ion routing multipole and analyzed using ion trap. The top 10 MS2 fragment ions in a subsequent scan were isolated and fragmented using HCD at a 55% normalised collision energy and analyzed using an Orbitrap mass analyser at a 60,000 resolution, in the scan range of 100–500 m/z. […]

T1 sequence (P49841 whole entry): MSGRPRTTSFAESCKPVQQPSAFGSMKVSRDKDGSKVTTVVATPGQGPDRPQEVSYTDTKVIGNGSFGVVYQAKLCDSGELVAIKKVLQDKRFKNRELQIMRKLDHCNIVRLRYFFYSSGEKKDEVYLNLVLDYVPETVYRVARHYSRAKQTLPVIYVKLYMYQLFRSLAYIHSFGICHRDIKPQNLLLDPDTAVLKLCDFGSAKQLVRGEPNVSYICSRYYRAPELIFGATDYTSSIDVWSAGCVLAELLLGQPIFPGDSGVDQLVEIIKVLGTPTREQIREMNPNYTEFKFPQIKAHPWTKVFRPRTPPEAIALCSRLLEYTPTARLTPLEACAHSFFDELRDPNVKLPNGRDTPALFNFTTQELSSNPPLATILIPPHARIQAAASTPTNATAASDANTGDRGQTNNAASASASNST

Compound `Cn1nc(N2CCC(=O)NC2=O)c2ccc(CN3CCN(Cc4ccc(-c5cn(-c6ccc(-c7cn8nccc(C(=O)Nc9cnccc9N9CCOCC9)c8n7)cc6)nn5)nc4)CC3)cc21` [compound 24] has a DC50 ([1]; 10% foetal bovine serum (FBS), 24 h) of 1.3 nM, a DC50 ([1]; 10% mouse serum (MS), 24 h) of 10.4 nM and a Dmax ([1]; HEK293, 10% foetal bovine serum (FBS), 24 h) of 89%. For the same compound, the “predicted shift in whole blood” value ([1]; extrapolated from 10% mouse serum shift) was ~ 80 ×, the “free fraction in mouse plasma from serum shift” value ([1]; extrapolated from serum shift assay) was ~ 1.2% and the proteome-wide selectivity (HEK293 cells proteome; 4 and 24 h, vs DMSO and negative control 27) was “consistent proteome-wide selectivity for GSK3α and GSK3β”. For the same compound, the proteome-wide selectivity (HEK293 cells proteome; 2 h, vs DMSO and negative control) was “exquisite selectivity for GSK3 paralogs”, the “β-catenin abundance, log2 fold change” value (HEK293 cells proteome; 4 h, p < 0.0005) was “+0.63” and the “β-catenin abundance, log2 fold change” value (HEK293 cells proteome; 24 h, p < 0.005) was “+0.89”.
